Assay [1] deals with T1, L-lactate dehydrogenase (Homo sapiens, UniProt V9HWB9). Put plainly: Inhibition of LDH in human A673 cells assessed as reduction in lactate production preincubated for 2 hrs measured after 30 mins by high throughput fluorescence assay. The class given is cell-based.
Assay [2] deals with T2, L-lactate dehydrogenase A chain (Homo sapiens, UniProt P00338).
Description: Inhibition of human liver LDHA using sodium pyruvate as substrate after 5 mins in presence of NAPDH and in absence of EDTA by diaphorase/resazurin based fluorescence assay
Assay [3] has as its target T1, L-lactate dehydrogenase. The assay can be described thus: Inhibition of LDH in human MIAPaCa2 cells assessed as reduction in lactate production preincubated for 2 hrs measured after 30 mins by high throughput fluorescence assay. The class given is cell-based.
For assay [4], the target named is T2, L-lactate dehydrogenase A chain. The source holds these as a separate data set.
Description: Inhibition of human liver LDHA using sodium pyruvate as substrate after 5 mins in presence of NAPDH and EDTA by diaphorase/resazurin based fluorescence assay

Broadly, the IC50 is the concentration that gives 50% inhibition. Read a low IC50 as greater potency in that assay.

SMILES strings stand for the structures. Activity calls are given as the source filed them. The calls are words filed in the database; no cut-off is given here.

For `O=C(O)c1csc(-n2nc(-c3cccc(C(F)(F)F)c3)cc2O)n1`, the inhibition result at L-lactate dehydrogenase [1] and at L-lactate dehydrogenase [3] was “inactive” throughout. Moreover, the IC50 is 189 nM in assay [2] and over 57 µM in assay [4].
As for `O=C(O)c1csc(-n2nc(-c3cccc(OC(F)(F)F)c3)cc2O)n1`, the inhibition result at L-lactate dehydrogenase [1] and at L-lactate dehydrogenase [3] was “inactive” throughout. The IC50 in assay [2] was 299 nM; in assay [4], over 57 µM.
Regarding `NS(=O)(=O)c1ccc(Cc2cn(-c3nc(C(O)C(F)(F)F)cs3)nc2-c2ccccc2)cc1` (centres undefined), in assay [4], the IC50 was over 57 µM.
For the compound `NS(=O)(=O)c1ccc(C(=O)Nc2cn(-c3nc(C(=O)O)cs3)nc2-c2ccccc2)cc1`, the IC50 in assay [4] is over 57 µM.
On to `O=C(O)c1csc(-n2nc(-c3cccc(-c4ccccc4F)c3)cc2O)n1`, for which the inhibition entry on L-lactate dehydrogenase [1] and on L-lactate dehydrogenase [3] was “inactive” throughout. Also, the IC50 in assay [2] was 95 nM; in assay [4], over 57 µM.
Regarding `O=C(O)c1csc(-n2nc(-c3ccc(Cl)c(Cl)c3)cc2O)n1`, the inhibition entry at L-lactate dehydrogenase [1] and at L-lactate dehydrogenase [3] was “inactive” in each case. Also, the IC50 in assay [2] was 106 nM; in assay [4], over 57 µM.
Regarding `O=C(O)c1csc(-n2nc(-c3cccc(Cl)c3)cc2C(F)(F)F)n1`, the inhibition entry on L-lactate dehydrogenase [1] and at L-lactate dehydrogenase [3] was “inactive” throughout. In addition, the IC50 is over 57000 nM in assay [2] and over 57 µM in assay [4].
In assay [4], `NC(=O)c1csc(-n2nc(-c3cccc(-c4ccccc4)c3)c(Cc3ccc(S(N)(=O)=O)cc3)c2O)n1` came in with an IC50 of 27.7 µM.
For the compound `O=C(O)c1csc(-n2nc(-c3cccc4ccccc34)cc2O)n1`, the inhibition entry on L-lactate dehydrogenase [1] and at L-lactate dehydrogenase [3] was “inactive” throughout. Further, the IC50 is 213 nM in assay [2] and over 57 µM in assay [4].
Regarding `O=C(O)c1csc(-n2nc(C3CCCCC3)cc2O)n1`, the inhibition result at L-lactate dehydrogenase [1] and at L-lactate dehydrogenase [3] was “inactive” each time. Moreover, the results for the IC50 in assay [2] and in assay [4] were 1100 nM and over 57 µM, respectively.
With `NS(=O)(=O)c1ccc(Cc2c(-c3ccccc3)nn(-c3nc(CO)cs3)c2C(F)(F)F)cc1`, half-maximal inhibition in assay [4] (IC50) was put at 25.5 µM.
Consider `O=C(O)c1csc(-n2nc(-c3cccc(Cl)c3)cc2O)n1`, for which the inhibition entry on L-lactate dehydrogenase [1] and at L-lactate dehydrogenase [3] was “inactive” each time. The IC50 in assay [2] is 168 nM; in assay [4] it was over 57 µM.
Regarding `O=C(O)c1csc(-n2nc(-c3ccc(F)c(F)c3)cc2O)n1`, the inhibition result at L-lactate dehydrogenase [1] and on L-lactate dehydrogenase [3] was “inactive” each time. The values for the IC50 in assay [2] and in assay [4] were 150 nM and over 57 µM, respectively.
Turning to `O=C(O)c1csc(-n2nc(-c3ccc(Cl)cc3)cc2C(F)(F)F)n1`, the inhibition entry at L-lactate dehydrogenase [1] and at L-lactate dehydrogenase [3] was “inactive” throughout. Besides, the IC50 in assay [2] turned out to be 26600 nM; in assay [4] it was 27.7 µM.
Compound `NS(=O)(=O)c1ccc(Cc2c(-c3cccc(-c4ccccc4)c3)nn(-c3nc(-c4nnn[nH]4)cs3)c2O)cc1` came in with a half-inhibitory concentration (IC50) in assay [4] of over 57 µM.
On to `O=C(O)c1csc(-n2nc(-c3ccncc3)cc2O)n1`, for which the inhibition result on L-lactate dehydrogenase [1] and at L-lactate dehydrogenase [3] was “inactive” each time. For the same compound, the IC50 was 669 nM in assay [2] and over 57 µM in assay [4].
`CNS(=O)(=O)c1ccc(Cc2c(-c3cccc(-c4ccccc4)c3)nn(-c3nc(C(=O)O)cs3)c2O)cc1` yielded an IC50 in assay [4] of over 57 µM.
Same read-out and setting: to `NS(=O)(=O)c1ccc(Oc2cn(-c3nc(C(=O)O)cs3)nc2-c2ccccc2)cc1` belongs 0.124 µM; to `NS(=O)(=O)c1ccc(Cc2c(-c3ccccc3)nn(-c3nc(C(=O)O)cs3)c2-c2ccccc2)cc1`, 0.139 µM.
For `CC(=O)Nc1cc(-c2ccccc2)nn1-c1nc(C(=O)O)cs1`, the inhibition entry at L-lactate dehydrogenase [1] and on L-lactate dehydrogenase [3] was “inactive” in each case. Also, the IC50 is 9570 nM in assay [2] and over 57 µM in assay [4].
In turn, `NS(=O)(=O)c1ccc(Oc2c(-c3ccccc3)nn(-c3nc(C(=O)O)cs3)c2C2CC2)cc1` gave an IC50 in assay [4] of 0.065 µM.
On to `O=C(O)c1csc(-n2nc(-c3cccc(F)c3)cc2O)n1`, for which the inhibition entry at L-lactate dehydrogenase [1] and on L-lactate dehydrogenase [3] was “inactive” throughout. Besides, the IC50 in assay [2] is 162 nM; in assay [4], over 57 µM.
Take `NS(=O)(=O)c1cccc(Cc2c(-c3ccc(F)c(F)c3)nn(-c3nc(C(=O)O)cs3)c2O)c1`: the IC50 in assay [4] is over 57 µM.
For the compound `O=C(O)c1csc(-n2nc(-c3ccccc3)cc2O)n1`, the inhibition entry on L-lactate dehydrogenase [1] and at L-lactate dehydrogenase [3] was “inactive” each time. Besides, the IC50 in assay [2] was 144 nM; in assay [4] it was over 57 µM.
With `O=C(O)c1ccc(Cc2c(-c3cccc(-c4ccccc4)c3)nn(-c3nc(C(=O)O)cs3)c2O)cc1`, in assay [4], it took 33.8 µM to reach half-maximal inhibition (IC50).
`O=C(O)c1csc(-n2nc(-c3ccccn3)cc2O)n1`: the inhibition entry at L-lactate dehydrogenase [1] and at L-lactate dehydrogenase [3] was “inactive” throughout. Moreover, the IC50 in assay [2] is 1020 nM; in assay [4], over 57 µM.
In the case of `NS(=O)(=O)c1ccc(NCc2cn(-c3nc(C(=O)O)cs3)nc2-c2ccccc2)cc1`, the IC50 in assay [4] is over 57 µM.
Compound `N#Cc1c(Cc2ccc(S(N)(=O)=O)cc2)c(-c2ccccc2)nn1-c1nc(C(=O)O)cs1` came in with an IC50 in assay [4] of 0.115 µM.
For the compound `Cc1cc(-c2ccccc2)nn1-c1nc(C(=O)O)cs1`, the inhibition result at L-lactate dehydrogenase [1] and on L-lactate dehydrogenase [3] was “inactive” each time. For the same compound, the IC50 in assay [2] was 15400 nM; in assay [4], over 57 µM.
Take `Cc1c(Cc2ccc(S(N)(=O)=O)cc2)c(-c2ccccc2)nn1-c1nc(C(=O)O)cs1`: the IC50 in assay [4] amounted to 0.042 µM.
On to `O=C(O)c1csc(-n2nc(-c3ccccc3F)cc2O)n1`, for which the inhibition entry on L-lactate dehydrogenase [1] and on L-lactate dehydrogenase [3] was “inactive” throughout. In addition, the IC50 in assay [2] is 134 nM; in assay [4] it was over 57 µM.
In the case of `O=C(O)c1csc(-n2nc(-c3ccccc3Cl)cc2C(F)(F)F)n1`, the inhibition result at L-lactate dehydrogenase [1] and at L-lactate dehydrogenase [3] was “inactive” in each case. In addition, the IC50 is over 57000 nM in assay [2] and over 57 µM in assay [4].
On to `O=C(O)c1csc(-n2nc(-c3ccc(F)cc3)cc2C(F)(F)F)n1`, for which the inhibition result on L-lactate dehydrogenase [1] and at L-lactate dehydrogenase [3] was “inactive” throughout.
As to `O=C(O)c1csc(-n2nc(-c3cccc(-c4ccccc4)c3)cc2O)n1`, the inhibition result on L-lactate dehydrogenase [1] and on L-lactate dehydrogenase [3] was “inactive” in each case. The IC50 in assay [2] is 266 nM; in assay [4] it was over 57 µM.
Regarding `O=C(O)c1csc(-n2nc(-c3cc(F)cc(F)c3)cc2O)n1`, the inhibition result on L-lactate dehydrogenase [1] and on L-lactate dehydrogenase [3] was “inactive” throughout. In addition, the IC50 in assay [2] is 110 nM; in assay [4], over 57 µM.
For the compound `CC(C)c1cc(-c2ccccc2)nn1-c1nc(C(=O)O)cs1`, the inhibition result at L-lactate dehydrogenase [1] and on L-lactate dehydrogenase [3] was “inactive” throughout. For the same compound, the IC50 in assay [2] is over 57000 nM; in assay [4], over 57 µM.
In assay [4], `NC(=O)c1ccc(Cc2c(-c3cccc(-c4ccccc4)c3)nn(-c3nc(C(=O)O)cs3)c2O)cc1` gave an IC50 of over 57 µM.
In assay [4], `O=C(O)c1csc(-n2nc(-c3ccc(F)c(F)c3)c(Cc3ccccc3)c2O)n1` registered an IC50 of over 57 µM.
Same read-out and setting: to `CCOC(=O)c1csc(-n2nc(-c3cccc(-c4ccccc4)c3)c(Cc3ccc(S(N)(=O)=O)cc3)c2C(F)(F)F)n1` belongs over 57 µM; to `NS(=O)(=O)N1CCN(Cc2cn(-c3nc(C(=O)O)cs3)nc2-c2ccccc2)CC1`, 17.3 µM.

For the origin of these results see ChEMBL document CHEMBL4028893, “Discovery and Optimization of Potent, Cell-Active Pyrazole-Based Inhibitors of Lactate Dehydrogenase (LDH)” (J Med Chem, 2017).
